# Data as given in patent US12409181B2, “Treatment for aortic aneurysms” (THE REGENTS OF THE UNIVERSITY OF CALIFORNIA, priority 2019, dated 2025).
# “Also recorded” adds a separate entry of the source.
# Legend:
# human aortic SMCs [1] = assay: SMC proliferation by BrdU uptake; format: cell-based
# Protocol: (§1) SMC Culture and Adenovirus Infection. Murine aortic SMCs were isolated from the aortas of 8-12 week old wild type and PKG1^RQ/+ mice and were cultured in Smooth Muscle Basal Media (SmBM) containing 20% FBS, pyruvate, HEPES, L-glutamine, penicillin/streptomycin and growth factors (SmBM Bullet kit; CC-4149 from Lonza), as previously described.^69 Two independent cell isolates from wild type and PKG1^RQ mice were used at passage one. Human primary aortic SMCs were purchased from Lifeline Cell Technology (Frederick, MD, FC-0015) and cultured in VascuLife Basal Medium supplemented with recombinant epidermal growth factor, insulin, and fibroblast growth factor-b, ascorbic acid, L-glutamine, 20% FBS, gentamycin, and amphotericin (Vasculife SMC LifeFactors kit; LS-1040 from Lifeline Technologies). Human SMCs were used at passages 3-6. Adenovirus was generated using the ViraPower Adenoviral Expression System (Thermo Fisher).^67 Human SMCs were infected with virus expressing wild type or mutant human PKG1α (containing the R177Q mutation); the MOI was 3-10 and titrated to produce wild type and mutant kinase at 2-3 fold the level of endogenous PKG1 at 72 h post infection. […]
# (§2) SMC Immunofluorescence Staining. […] Images were analyzed with a Keyence BZ-X700 fluorescence microscope.
# human aortic SMCs [2] = assay: H2O2 production by Amplex Red in SMCs expressing PKG1^RQ; format: cell-based; settings: human aortic SMCs infected with PKG1^RQ adenovirus
# Protocol: as §1, with “3-6.” for “3-6. Adenovirus was generated using the ViraPower Adenoviral Expression System (Thermo Fisher).^67 Human SMCs were infected with virus expressing wild type or mutant human PKG1α (containing the R177Q mutation); the MOI was 3-10 and titrated to produce wild type and mutant kinase at 2-3 fold the level of endogenous PKG1 at 72 h post infection.”
# Amplex Red and NADPH Oxidase Assays. Primary murine SMCs isolated from wild type or PKG1^RQ/+ aortas, and human SMCs infected with control, wild type, or mutant PKG1^RQ virus, were seeded at 4×10^4 cells/well in 96-well plates, and H2O2 production was measured using an Amplex Red/Hydrogen Peroxide/Peroxidase Assay Kit (Thermo Fischer Scientific). […] Fluorescence was measured every min in a BioTek Synergy 2 plate reader, using 540 nm excitation and 590 nm emission wavelengths.
# human aortic SMCs [3] = assay: SMC apoptosis by cleaved caspase-3 staining; format: cell-based; settings: human SMCs expressing PKG1^RQ
# Protocol: as §1, §2
# human aortic SMCs [4] = assay: DNA oxidation by 8-OH-deoxyguanosine immunofluorescence staining in SMCs; format: cell-based; settings: human aortic SMCs expressing PKG1^RQ
# Protocol: as §1, §2
# aortic rings = assay: Arterial ring isometric tension measurements; parameters: species or system mice
# Protocol: Arterial Ring Isometric Tension Measurements. Isometric tension in aortas was measured as previously described,^64 with minor modifications. Thoracic aortas were dissected in Krebs-Henseleit solution, cleaned of any adherent connective tissue, and cut into 1.5-2 mm segments. Rings with intact endothelium were mounted in a wire myograph over 40 μm wires, set at a resting tension of 0.5 g, and allowed to equilibrate at 37° C. for 45 min with intermittent washes every 15 min. After equilibration, aortas were treated with 40 mM K^+-solution. For vascular relaxation by acetylcholine (Sigma) or 8-(4-chlorophenylthio)cGMP (8-CPT-cGMP, BioLog), each aortic ring was pre-contracted to generate ˜0.15 g contraction by treatment with prostaglandin-F2α (PGF2α 2-8 μM, Thermo-Fisher). The degree of relaxation was calculated as a percent of PGF2α-induced contraction.
# Prkg1^RQ/+ mice = assay: Transverse aortic constriction (TAC) with N-acetylcysteine treatment; format: in vivo
# human aortic SMCs [5] = assay: Western blots (VASP phosphorylation, JNK activation) and OxyBlot protein oxidation in human SMCs; format: cell-based; settings: human aortic SMCs, combined with low concentrations of an NO donor
# Protocol: Western Blotting. Following anesthesia with ketamine (100 mg/kg) and xylazine (10 mg/kg) by intraperitoneal injection, mice were exsanguinated and perfused with ice-cold phosphate-buffered saline (PBS) containing protease inhibitor cocktail (Calbiochem #539131). Aortas were excised, cleaned from surrounding tissue, and snap-frozen in liquid nitrogen within 15 min of euthanasia. Frozen aortas were pulverized and sonicated (3×10 sec) in ice-cold RIPA buffer (50 mM NaCl, 50 mM Tris-HCl, pH 8, 1% NP-40, 0.1% SDS, 0.5% sodium deoxycholate) supplemented with 1 mM NaF, 1 mM β-glycerolphosphate, and protease inhibitor cocktail. Western blots were developed with primary antibodies specific for PKG1 (1:1000, Cell Signaling Technology; 3248, […] (1:1000, Cell Signaling Technology; 3114), GAPDH (1:1000, Cell Signaling Technology; 2118), β-actin (1:5000, Santa Cruz Biotechnology; 47778), and JNK-phospho-Thr^183/Tyr^185 (1:1000, Cell Signaling Technology; 9251). Blots were developed and visualized with enhanced chemiluminescence using LI-COR Odyssey (with ImageStudio, V5) or with film in the linear range of exposure (with densitometry scanning using ImageJ (V1.51). Protein carbonyl groups (aldehydes and ketones) were detected using the OxyBlot™ Protein Oxidation Detection Kit (Millipore EMD; S7150). Unprocessed scans of blots are provided in the Source Data file.
# SMC Culture and Adenovirus Infection. Murine aortic SMCs were isolated from the aortas of 8-12 week old wild type and PKG1^RQ/+ mice and were cultured in Smooth Muscle Basal Media (SmBM) containing 20% FBS, pyruvate, HEPES, L-glutamine, penicillin/streptomycin and growth factors (SmBM Bullet kit; CC-4149 from Lonza), as previously described.^69 Two independent cell isolates from wild type and PKG1^RQ mice were used at passage one. Human primary aortic SMCs were purchased from Lifeline Cell Technology (Frederick, MD, FC-0015) and cultured in VascuLife Basal Medium supplemented with recombinant epidermal growth factor, insulin, and fibroblast growth factor-b, ascorbic acid, L-glutamine, 20% FBS, gentamycin, and amphotericin (Vasculife SMC LifeFactors kit; LS-1040 from Lifeline Technologies). Human SMCs were used at passages 3-6. Adenovirus was generated using the ViraPower Adenoviral Expression System (Thermo Fisher).^67 Human SMCs were infected with virus expressing wild type or mutant human PKG1α (containing the R177Q mutation); the MOI was 3-10 and titrated to produce wild type and mutant kinase at 2-3 fold the level of endogenous PKG1 at 72 h post infection. […] For knock-down of NOX2 and NOX4, SMCs were infected with adenovirus expressing shNOX2 or shNOX4 oligomers (downstream of the U6 promoter) at an MOI of 100; H2O2 production and NADPH oxidase activity assays were performed 48 h later (as described below).
compound,measurement,setting,value
CN(C)c1cccc(-c2c3c(=O)n(-c4ccccc4Cl)[nH]c3cc(=O)n2C)c1 [GKT137831],growth-inhibitory effect of PKG1^RQ (SMC proliferation),"human aortic SMCs [1]; human SMCs expressing PKG1^RQ, growth factor-induced proliferation",partly prevented
same,H2O2 production in PKG1^RQ-expressing cells,human aortic SMCs [2],reduced H2O2 production in the PKG1^RQ-expressing cells to a level found in control cells
same,pro-apoptotic effect of PKG1^RQ (SMC apoptosis),human aortic SMCs [3],partly prevented
same,PKG1^RQ-induced increase in DNA oxidation (pro-oxidant effect of PKG1^RQ),human aortic SMCs [4],blocked
"Nc1nc2c(nc(Sc3ccc(Cl)cc3)n2[C@@H]2O[C@@H]3COP(=O)(O)O[C@H]3[C@H]2O)c(=O)[nH]1 [8-CPT-cGMP, 8-(4-chlorophenylthio)cGMP]",relaxation of pre-contracted aortic rings in response to the agent,"aortic rings; Prkg1^RQ/+ versus wild type aortas, rings pre-contracted with PGF2α",reduced in the mutant mice compared to wild type mice
"CC(=O)N[C@@H](CS)C(=O)O [NAC, N-acetylcysteine]",aortic pressure gradients after TAC surgery,Prkg1^RQ/+ mice; NAC-treated mice,did not affect
same,pre-stenotic aortic dilation after TAC,Prkg1^RQ/+ mice; NAC-treated mice,did not affect
same,survival after TAC compared to untreated mice,"Prkg1^RQ/+ mice; NAC-treated mutant mice, 14 d after TAC",trend towards improved survival; also recorded: its effect on mortality was limited
same,"TAC-induced aortic pathological changes, including media thinning","Prkg1^RQ/+ mice; Prkg1^RQ/+ mice, 1 mg/ml NAC in drinking water four weeks prior to and two weeks after TAC",largely prevented; also recorded: effective in ameliorating aortic wall injury after TAC
same,oxidative stress after TAC,"Prkg1^RQ/+ mice; Prkg1^RQ/+ mice, NAC four weeks prior to and two weeks after TAC",reduced oxidative stress
same,effect in wild type mice after TAC,"Prkg1^RQ/+ mice; wild type mice, NAC four weeks prior to and two weeks after TAC",no obvious effect
prostaglandin F2α,"concentration required to pre-contract aortic rings, mutant mice","aortic rings; eight month-old Prkg1^RQ/+ mice, n=5 vessels",2.27 ± 0.86 µM
same,"concentration required to pre-contract aortic rings, wild type mice","aortic rings; eight month-old wild type mice, n=5 vessels",2.15 ± 0.17 µM
"CCCc1nn(C)c2c(=O)[nH]c(-c3cc(S(=O)(=O)N4CCN(C)CC4)ccc3OCC)nc12 [sildenafil, reference compound]",SMC proliferation,"human aortic SMCs [1]; human aortic SMCs, drug combination of sildenafil and NO donor",inhibited SMC proliferation
same,JNK activation,human aortic SMCs [5],induced JNK activation
same,VASP phosphorylation,human aortic SMCs [5],increased VASP phosphorylation
